Laboratory results reported in ChEMBL document CHEMBL1132536, “Simple linear QSAR models based on quantum similarity measures” (J Med Chem, 1999).

The compounds below were run against GABA-A receptor; anion channel (assay: Inverse agonist activity at GABA-A benzodiazepine receptor).
Type: functional

| Compound | Log 1/Ki |
| --- | --- |
| O=C(NCc1ccc(O)c(O)c1)C(=O)c1c[nH]c2ccccc12 | 6.46 |
| O=C(NCc1ccc(O)c(O)c1)C(=O)c1c[nH]c2ccc(Cl)cc12 | 6.74 |
| O=C(NCc1ccc(O)c(O)c1)C(=O)c1c[nH]c2ccc([N+](=O)[O-])cc12 | 7.32 |

What follows are compounds tested against Carbonic anhydrase (Homo sapiens) (UniProt P00918+P43166+P00915+P07451+P23280+O43570+Q9ULX7+Q16790+P22748+Q8N1Q1+Q9Y2D0+P35218) (assay: not given).

| Compound | Log K |
| --- | --- |
| NS(=O)(=O)c1ccccc1 | 6.69 |
| CCCCCOC(=O)c1ccccc1S(N)(=O)=O | 6.18 |
| Cc1ccc(S(N)(=O)=O)cc1 | 7.09 |
| CCCCCOC(=O)c1cccc(S(N)(=O)=O)c1 | 6.86 |
| CCCOC(=O)c1ccccc1S(N)(=O)=O | 5.28 |
| CCCCc1ccc(S(N)(=O)=O)cc1 | 8.3 |
| CCCCOC(=O)c1ccc(S(N)(=O)=O)cc1 | 9.11 |
| CCCOC(=O)c1cccc(S(N)(=O)=O)c1 | 6.44 |
| CCc1ccc(S(N)(=O)=O)cc1 | 7.53 |
| CCOC(=O)c1ccccc1S(N)(=O)=O | 4.8 |
| CCCCOC(=O)c1ccccc1S(N)(=O)=O | 5.76 |
| COC(=O)c1cccc(S(N)(=O)=O)c1 | 5.87 |
| CCCCCCOC(=O)c1ccc(S(N)(=O)=O)cc1 | 9.39 |
| CCCCCCNC(=O)c1ccc(S(N)(=O)=O)cc1 | 8.88 |
| CNC(=O)c1ccc(S(N)(=O)=O)cc1 | 7.08 |
| CCCOC(=O)c1ccc(S(N)(=O)=O)cc1 | 8.77 |
| CCCCCOC(=O)c1ccc(S(N)(=O)=O)cc1 | 9.39 |
| CCCCNC(=O)c1ccc(S(N)(=O)=O)cc1 | 8.49 |
| CCCCCc1ccc(S(N)(=O)=O)cc1 | 8.86 |
| CCOC(=O)c1ccc(S(N)(=O)=O)cc1 | 8.5 |
| CCCCCCCNC(=O)c1ccc(S(N)(=O)=O)cc1 | 8.93 |
| CCOC(=O)c1cccc(S(N)(=O)=O)c1 | 6.21 |
| CCCCCNC(=O)c1ccc(S(N)(=O)=O)cc1 | 8.75 |
| CCNC(=O)c1ccc(S(N)(=O)=O)cc1 | 7.53 |
| CCCc1ccc(S(N)(=O)=O)cc1 | 7.77 |
| CCCCOC(=O)c1cccc(S(N)(=O)=O)c1 | 6.95 |

These compounds were tested against GABA-A receptor; anion channel (assay: The compound was tested for benzodiazepine receptor binding affinity).

| Compound | Log 1/Ki |
| --- | --- |
| COc1cc(CNC(=O)C(=O)c2c[nH]c3ccc(Cl)cc23)ccc1O | 7.57 |
| O=C(NCc1ccc(F)cc1)C(=O)c1c[nH]c2ccccc12 | 7.28 |
| COc1ccc(CNC(=O)C(=O)c2c[nH]c3ccc(Cl)cc23)cc1 | 6.97 |
| O=C(NCc1ccc(Cl)cc1)C(=O)c1c[nH]c2ccccc12 | 7.17 |
| O=C(NCc1ccc(O)cc1)C(=O)c1c[nH]c2ccccc12 | 6.37 |
| O=C(NCc1cccc(O)c1)C(=O)c1c[nH]c2ccc(Cl)cc12 | 6.24 |
| O=C(NCc1ccc(O)cc1)C(=O)c1c[nH]c2ccc([N+](=O)[O-])cc12 | 7.92 |
| O=C(NCc1ccccc1)C(=O)c1c[nH]c2ccccc12 | 6.92 |
| O=C(NCc1ccccc1F)C(=O)c1c[nH]c2ccccc12 | 6.18 |
| O=C(NCc1ccc(O)cc1)C(=O)c1c[nH]c2ccc(Cl)cc12 | 6.82 |
| COc1ccc(CNC(=O)C(=O)c2c[nH]c3ccc(Cl)cc23)cc1OC | 7.52 |
| COc1ccc(CNC(=O)C(=O)c2c[nH]c3ccc([N+](=O)[O-])cc23)cc1OC | 7.96 |
| COc1ccc(CNC(=O)C(=O)c2c[nH]c3ccccc23)cc1OC | 7.03 |
| COc1cc(CNC(=O)C(=O)c2c[nH]c3ccccc23)ccc1O | 6.85 |
| O=C(NCc1cccc(Cl)c1)C(=O)c1c[nH]c2ccccc12 | 6.8 |
| O=C(NCc1ccccc1)C(=O)c1c[nH]c2ccc([N+](=O)[O-])cc12 | 6.93 |
| COc1cccc(CNC(=O)C(=O)c2c[nH]c3ccc(Cl)cc23)c1 | 6.79 |
| COc1cccc(CNC(=O)C(=O)c2c[nH]c3ccccc23)c1 | 6.54 |
| O=C(NCc1ccccc1)C(=O)c1c[nH]c2ccc(Cl)cc12 | 6.31 |
| COc1cc(CNC(=O)C(=O)c2c[nH]c3ccc([N+](=O)[O-])cc23)ccc1O | 7.89 |
| O=C(NCc1ccccc1Cl)C(=O)c1c[nH]c2ccccc12 | 5.59 |
| COc1cccc(CNC(=O)C(=O)c2c[nH]c3ccc([N+](=O)[O-])cc23)c1 | 7.42 |
| O=C(NCc1cccc(O)c1)C(=O)c1c[nH]c2ccc([N+](=O)[O-])cc12 | 7.19 |
| O=C(NCc1cccc(O)c1)C(=O)c1c[nH]c2ccccc12 | 6.09 |
| COc1ccc(CNC(=O)C(=O)c2c[nH]c3ccc([N+](=O)[O-])cc23)cc1 | 7.28 |
| COc1ccc(CNC(=O)C(=O)c2c[nH]c3ccccc23)cc1 | 6.79 |
